pIC50: −log10 of the molar value. Read-outs that look alike come from different tables or passages of the source.
How the values were obtained:
[1] = system: TNF release; test: TNF assay: TNF release from LPS-stimulated human PBMCs (TNF ELISA); type: cell-based; conditions: PBMC, read-out: IC50 (TNF assay)
In short: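 Human PBMCs at 10k/well pretreated with compound dilutions 2 h, then stimulated with LPS (10 ng/mL) for 18 h. TNF in supernatants quantified by ELISA; IC50 for inhibition of TNF release fitted from concentration–response.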

[2] = system: NF-κB; test: NF-κB assay: THP1-NF-κB-LUC cells, LPS-stimulated secreted luciferase; type: cell-based; conditions: THP1-NF-κB-LUC cells, read-out: IC50 (NF-κB assay)
In short: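 THP1-NF-κB-LUC cells (25k/well) were pretreated with compounds for 2 h, then stimulated with LPS (10 ng/mL) for 18 h. Secreted luciferase was measured and normalized to vehicle, and IC50 was fitted from the concentration series.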

[3] = human PBMCs, compounds 2 hours before LPS (10 ng/ml) for 18 hours, supernatant TNF ELISA
[4] = compounds 2 hours before LPS (10 ng/mL) for 18 hours, secreted luciferase
[5] = LPS-stimulated human PBMCs, TNF ELISA

Q: With `CCS(=O)(=O)c1cc2c(c(S(=O)(=O)Nc3ccccc3)c1)OCC(=O)N2` [BC19437] as the compound, how does the pIC50 [1, 3] read?
A: < 5.00

Q: And the pIC50 [2, 4]?
A: > 7.00

Q: How did the pIC50 [1, 5] turn out when `CN(C)CCNC(=O)Nc1ccc2nc(-c3ccc(F)cc3)c(-c3ccc(F)cc3)nc2c1` [BC19564] was run?
A: 5.00 to 6.00

Q: What about the pIC50 ([2]; LPS-stimulated) of the same compound?
A: > 7.00

Q: How did the pIC50 [1, 5] turn out when `COCCS(=O)(=O)c1sc(-c2cccc(F)c2)nc1S(=O)(=O)c1ccc(Cl)cc1` [BC19527] was run?
A: 5.00 to 6.00

Q: What about the pIC50 ([2]; LPS-stimulated) of the same compound?
A: 5.00 to 6.00

Q: With `CC(C)CC1Oc2cc(S(=O)(=O)Nc3cccc(F)c3)c(Br)cc2NC1=O` (centres unmarked) [BC19774] as the compound, how does the pIC50 [1, 3] read?
A: < 5.00

Q: What about the pIC50 [2, 4] of the same compound?
A: 6.00 to 7.00

Q: What does the source list for `CC(C)NS(=O)(=O)c1cc(Cl)cc2c1OC(C)C(=O)N2` (centres unmarked) [BC19293]?
A: pIC50 [1, 3]: < 5.00; pIC50 [2, 4]: 6.00 to 7.00

Q: `O=C(NCCCN1CCCC1=O)Nc1ccc2nc(-c3ccc(F)cc3)c(-c3ccc(F)cc3)nc2c1` [BC19617] was tested. Which pIC50 [1, 5] did it give?
A: < 5.00

Q: What about the pIC50 ([2]; LPS-stimulated) of the same compound?
A: 6.00 to 7.00

Q: How did the pIC50 [1, 3] turn out when `CCC1Oc2c(cc(Cl)cc2S(=O)(=O)Nc2ccc(F)c(F)c2)NC1=O` (centres unmarked) [BC19736] was run?
A: < 5.00

Q: And the pIC50 [2, 4]?
A: > 7.00

Q: How did the pIC50 [1, 5] turn out when `Fc1ccc(-c2nc3ccc(-c4nnnn4CCN4CCOCC4)cc3nc2-c2ccc(F)cc2)cc1` [BC19238] was run?
A: < 5.00

Q: What about the pIC50 ([2]; LPS-stimulated) of the same compound?
A: > 7.00

Q: What does the source list for `O=C1NCCOc2c1cc(Br)cc2S(=O)(=O)Nc1ccc(Cl)cc1` [BC19603]?
A: pIC50 [1, 5]: < 5.00; pIC50 ([2]; LPS-stimulated): 6.00 to 7.00

Q: How did the pIC50 [1, 3] turn out when `CCC1Oc2c(cc(Cl)cc2S(=O)(=O)Nc2cccc(Cl)c2)NC1=O` (centres unmarked) [BC19752] was run?
A: < 5.00

Q: What about the pIC50 [2, 4] of the same compound?
A: > 7.00

Q: With `O=c1c(S(=O)(=O)c2ccc(Cl)cc2)c(O)[nH]c2ncccc12` [BC19259] as the compound, how does the pIC50 [1, 3] read?
A: < 5.00

Q: And the pIC50 [2, 4]?
A: 5.00 to 6.00

Q: What does the source list for `CNc1cccc2cc(S(=O)(=O)c3ccccc3)cnc12` [BC19325]?
A: pIC50 [1, 3]: 5.00 to 6.00; pIC50 [2, 4]: < 5.00

Q: `O=C(O)c1ccc2nc(-c3ccc(F)cc3)c(-c3ccc(F)cc3)nc2c1` [BC19118] was tested. Which pIC50 [1, 5] did it give?
A: < 5.00

Q: What about the pIC50 ([2]; LPS-stimulated) of the same compound?
A: 5.00 to 6.00

Q: Which results are given for `Cc1ccc(NS(=O)(=O)c2cc3c(cc2Br)NC(=O)CCO3)cc1F` [BC19653]?
A: pIC50 [1, 5]: < 5.00; pIC50 ([2]; LPS-stimulated): < 5.00

Q: `CC1Oc2cc(S(=O)(=O)NCc3ccc(C(F)(F)F)cc3)c(Br)cc2NC1=O` (centres unmarked) [BC19358] was tested. Which pIC50 [1, 3] did it give?
A: < 5.00

Q: What about the pIC50 [2, 4] of the same compound?
A: < 5.00

Q: How did the pIC50 [1, 5] turn out when `O=S(=O)(NCc1cccnc1)c1ccc2nc(-c3ccc(F)cc3)c(-c3ccc(F)cc3)nc2c1` [BC19557] was run?
A: < 5.00

Q: And the pIC50 ([2]; LPS-stimulated)?
A: > 7.00

Q: With `Cc1ccc(NS(=O)(=O)c2cc(Br)cc3c2OCCNC3=O)cc1` [BC19612] as the compound, how does the pIC50 [1, 5] read?
A: < 5.00

Q: What about the pIC50 ([2]; LPS-stimulated) of the same compound?
A: 5.00 to 6.00

Q: Which results are given for `COc1ccc(NS(=O)(=O)c2cc3c(cc2Br)NC(=O)CO3)cc1` [BC19137]?
A: pIC50 [1, 3]: < 5.00; pIC50 [2, 4]: 6.00 to 7.00

Q: `CCC[S+]([O-])c1sc(-c2ccc(F)cc2)nc1S(=O)(=O)c1ccc(Cl)cc1` (centres unmarked) [BC19414] was tested. Which pIC50 [1, 5] did it give?
A: < 5.00

Q: And the pIC50 ([2]; LPS-stimulated)?
A: < 5.00

Q: Which results are given for `O=S(=O)(c1ccc(Cl)cc1)c1nc(-c2cccc(F)c2)oc1[S+]([O-])CC1CC1` (centres unmarked) [BC19349]?
A: pIC50 [1, 5]: > 7.00; pIC50 ([2]; LPS-stimulated): 6.00 to 7.00

Q: `CCCS(=O)(=O)c1oc(-c2ccc(Cl)cc2)nc1S(=O)(=O)c1ccc(Cl)cc1` [BC19418] was tested. Which pIC50 [1, 5] did it give?
A: 5.00 to 6.00

Q: What about the pIC50 ([2]; LPS-stimulated) of the same compound?
A: 5.00 to 6.00

Q: `CN1CCC(C(=O)Nc2ccc3nc(-c4ccc(F)cc4)c(-c4ccc(F)cc4)nc3c2)CC1` [BC19309] was tested. Which pIC50 [1, 5] did it give?
A: 5.00 to 6.00

Q: And the pIC50 ([2]; LPS-stimulated)?
A: 6.00 to 7.00

Q: How did the pIC50 [1, 3] turn out when `CCc1ccc(NS(=O)(=O)c2cc3c(cc2Br)N(C)C(=O)C(CC)O3)cc1` (centres unmarked) [BC19932] was run?
A: 5.00 to 6.00

Q: What about the pIC50 [2, 4] of the same compound?
A: > 7.00

Q: What does the source list for `CCC[S+]([O-])c1sc(-c2ccc(Cl)cc2)nc1S(=O)(=O)c1ccc(Cl)cc1` (centres unmarked) [BC19533]?
A: pIC50 [1, 5]: 5.00 to 6.00; pIC50 ([2]; LPS-stimulated): 5.00 to 6.00

Q: `Cc1ccc(NS(=O)(=O)c2cc(Cl)cc3c2OCC(=O)N3)cc1Cl` [BC19176] was tested. Which pIC50 [1, 3] did it give?
A: < 5.00

Q: And the pIC50 [2, 4]?
A: > 7.00

Q: How did the pIC50 [1, 5] turn out when `CCC[S+]([O-])c1[nH]c(-c2ccccc2)nc1S(=O)(=O)c1ccc(Cl)cc1` (centres unmarked) [BC19465] was run?
A: < 5.00

Q: And the pIC50 ([2]; LPS-stimulated)?
A: 5.00 to 6.00

Q: What does the source list for `COc1ccc(NS(=O)(=O)c2cc(Br)cc3c2OCC(=O)N3)cc1` [BC19175]?
A: pIC50 [1, 3]: < 5.00; pIC50 [2, 4]: > 7.00

Q: What does the source list for `Cc1nnc(-c2ccc3nc(-c4ccc(F)cc4)c(-c4ccc(F)cc4)nc3c2)[nH]1` [BC19102]?
A: pIC50 [1, 5]: < 5.00; pIC50 ([2]; LPS-stimulated): 6.00 to 7.00

Q: What does the source list for `CCS(=O)(=O)c1oc(-c2ccc(C)cc2)nc1S(=O)(=O)c1ccc(Br)cc1` [BC19129]?
A: pIC50 [1, 5]: 6.00 to 7.00; pIC50 ([2]; LPS-stimulated): > 7.00

Q: `Cc1ccc(NS(=O)(=O)c2cc(S(C)(=O)=O)cc3c2OCC(=O)N3)cc1F` [BC19423] was tested. Which pIC50 [1, 3] did it give?
A: < 5.00

Q: And the pIC50 [2, 4]?
A: > 7.00

Q: With `CC(C)C[S+]([O-])c1sc(-c2ccc(Cl)cc2)nc1S(=O)(=O)c1ccc(F)cc1` (centres unmarked) [BC19593] as the compound, how does the pIC50 [1, 5] read?
A: 5.00 to 6.00

Q: What about the pIC50 ([2]; LPS-stimulated) of the same compound?
A: 6.00 to 7.00

Q: With `O=S(=O)(CC1CC1)c1sc(C2CCCCC2)nc1S(=O)(=O)c1ccc(Cl)cc1` [BC19639] as the compound, how does the pIC50 [1, 5] read?
A: < 5.00

Q: And the pIC50 ([2]; LPS-stimulated)?
A: < 5.00

Q: With `Fc1ccc(-c2nc3ccc(-c4nnn[nH]4)cc3nc2-c2ccc(F)cc2)cc1` [BC19144] as the compound, how does the pIC50 [1, 5] read?
A: < 5.00

Q: And the pIC50 ([2]; LPS-stimulated)?
A: 5.00 to 6.00

Q: How did the pIC50 [1, 5] turn out when `CN1CCN(C(=O)c2ccc3nc(C(F)(F)F)c(-c4ccncc4)nc3c2)CC1` [BC19149] was run?
A: < 5.00

Q: What about the pIC50 ([2]; LPS-stimulated) of the same compound?
A: < 5.00

— patent US12606528B2, “Methods and materials for inhibiting NF-kB activity” (University of Pittsburgh - Of the Commonwealth System of …, priority 2019, dated 2026)
